Results as given in patent US6933317B2, “PGD2 receptor antagonistic pharmaceutical compositions” (Shionogi & Co. Ltd., priority 2000, dated 2005).

How the values were obtained:
PGD2 receptor [1] = target: T1, PGD2 receptor (Homo sapiens, UniProt Q13258); test: Antagonistic activity against PGD2 receptor using human platelet (inhibition of PGD2-induced cAMP increase); type: cell-based; conditions: 0.1 μM PGD2, cAMP by radioimmunoassay, read-out: Inhibitory activity for the increase of cAMP caused by PGD2 in human platelet IC50
T1 construct: Peripheral blood was collected from a healthy volunteer; endogenous in cells; host or cells: washed human platelets from peripheral blood of a healthy volunteer
T1 sequence (Q13258 1-359): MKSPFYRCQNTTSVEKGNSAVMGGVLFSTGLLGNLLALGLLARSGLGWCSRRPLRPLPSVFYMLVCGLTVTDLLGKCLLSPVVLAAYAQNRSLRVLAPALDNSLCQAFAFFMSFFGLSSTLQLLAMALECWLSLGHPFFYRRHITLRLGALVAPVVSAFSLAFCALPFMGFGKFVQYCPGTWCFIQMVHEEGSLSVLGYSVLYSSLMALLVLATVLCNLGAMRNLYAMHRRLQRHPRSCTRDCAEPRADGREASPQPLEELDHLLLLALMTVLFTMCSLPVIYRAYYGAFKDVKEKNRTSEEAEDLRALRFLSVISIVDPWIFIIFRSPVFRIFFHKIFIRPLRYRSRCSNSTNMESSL
Method: Experiment 2 Evaluation of Antagonistic Activity Against PGD2 Receptor Using Human Platelet
Peripheral blood was collected from a healthy volunteer using a syringe in which 1/9 volume of a citric acid/dextrose solution was previously added. The sample was subjected to centrifugation at 1200 rpm for 10 min to obtain the supernatant (PRP: platelet rich plasma). The resultant PRP was washed 3 times with a washing buffer and the number of platelets was counted with a micro cell counter. A suspension adjusted to contain the platelets at a final concentration of 5×10^8/ml was warmed at 37° C., then subjected to the pre-treatment with 3-isobutyl-1-methylxanthine (0.5 mM) for 5 min. To the suspension was added a test compound diluted at various concentration, and 10 minutes later, 0.1 μM PGD2 was added to induce the reaction 2 minutes later, hydrochloric acid was added to terminate the reaction. The platelet was destroyed with an ultrasonic homogenizer. After centrifugation, the cAMP in the supernatant was determined by radioimmunoassay.

[2] = Change of plasma concentration of drug in rat (half life of the disappearance after intravenous administration); type: in vivo; conditions: Jcl-SD male rats, 0.5 to 2 mg/kg, plasma concentration of unchanged compound
Method: Experiment 3 Change of Plasma Concentration of Drug in Rat
Compound (0.5 to 2 mg/kg) was administered intravenously to Jcl-SD male rats. The concentration of the unchanged compound was measured at 2, 5, 15, 30, 60, 120, and 240 min after the administration by the use of HPLC (determination limit; 0.05 μg/ml) and LC/MS/MS (determination limit; 0.001 μg/ml) and the half life of the disappearance was calculated. [drawing 387]

PGD2 receptor [3] = target: T1, PGD2 receptor; test: Binding activity to PGD2 receptor (human platelet membrane fraction, [3H]PGD2); conditions: 5 nM [3H]PGD2, 4° C., 90 min
Method: Experiment 1 Binding Activity to PGD2 Receptor
(1) Preparation of Human Platelet Membrane Fraction
Blood was collected using a plastic syringe containing 3.8% sodium citrate from the vein of healthy volunteers (adult male and female), then put into a plastic test tube and mixed by slow-reversion. The sample was then centrifuged at 1800 rpm, for 10 min at room temperature, and the supernatant containing PRP (platelet-rich plasma) was collected. The PRP was re-centrifuged at 2300 rpm, for 22 min at room temperature to obtain platelets. The platelets were homogenized using a homogenizer (Ultra-Turrax) followed by centrifugation 3 times at 20,000 rpm, 10 min at 4° C. to obtain a platelet membrane fraction. After protein determination, the membrane fraction was adjusted to 2 mg/ml and preserved in a refrigerator at −80° C. until using for the binding test.
(2) Binding to PGD2 Receptor
To a binding-reaction solution (50 mM Tris/HCl, pH 7.4, 5 mM MgCl2) (0.2 ml) were added the human platelet membrane fraction (0.1 mg) and 5 nM [^3H]PGD2 (115 Ci/mmol), and the mixture was reacted at 4° C. for 90 min. After the reaction, the mixture was filtered through a glass fiber filter paper and washed several times with cooled physiological saline, then the radioactivity retained on the filter paper was measured. The specific-binding ratio was calculated by subtracting the non-specific binding ratio which is the radioactivity similarly measured in the presence of 10 μM PGD2 from the total binding. The inhibitory activity of each compound was expressed as the concentration required for 50% inhibition (IC50), which was determined by depicting a substitution curve by plotting the binding ratio (%) in the presence of each compound, where the binding ratio in the absence of a test compound is 100%.

Compound	IC50 (PGD2 receptor [1])	half-life [2]	IC50 (PGD2 receptor [3])	melting point
CC1(C)[C@H]2C[C@H](CCCC/C=C/C(=O)O)[C@@H](NC(=O)c3csc4ccc(O)cc34)[C@@H]1C2 [IIa-23]	2.5 nM		33 nM	
CC1(C)[C@H]2C[C@H](CCCCOCC(=O)O)[C@@H](NC(=O)c3csc4ccccc34)[C@@H]1C2 [IIc-17]	5.4 nM			125 to 126 °C
CC1(C)[C@H]2C[C@H](CCCCOCC(=O)O)[C@@H](NC(=O)c3csc4ccc(O)cc34)[C@@H]1C2 [IIc-23]	4.9 nM		9.5 nM	
CC1(C)[C@H]2C[C@H](CCCCOCC(=O)O)[C@@H](NC(=O)c3csc4cccc(O)c34)[C@@H]1C2 [IIc-24]	13 nM			
CC1(C)[C@H]2C[C@H](CCCCOCC(=O)O)[C@@H](NC(=O)c3csc4ccc(F)cc34)[C@@H]1C2 [IIc-28]	13 nM			144 to 146 °C
CC1(C)[C@H]2C[C@H](CCCCOCC(=O)O)[C@@H](NC(=O)c3coc4ccc(O)cc34)[C@@H]1C2 [IIc-52]	8.2 nM	23.4 min	3.5 nM	
Cc1cc(O)cc2c(C(=O)N[C@@H]3[C@@H](CCCCOCC(=O)O)C[C@H]4C[C@@H]3C4(C)C)coc12 [IIc-81]	8 nM			
CC1(C)[C@H]2C[C@H](CCCCOCC(=O)O)[C@@H](NC(=O)c3csc4ccc(NC(N)=O)cc34)[C@@H]1C2 [IIc-86]	8 nM			
CC1(C)[C@H]2C[C@H](CCCCOCC(=O)O)[C@@H](NC(=O)c3csc4ccc(CNS(C)(=O)=O)cc34)[C@@H]1C2 [IIc-96]	17 nM			
CC1(C)[C@H]2C[C@H](CCCCOCC(=O)O)[C@@H](NC(=O)c3csc4ccc(C(N)=O)cc34)[C@@H]1C2 [IIc-99]	6 nM			164 to 166 °C
CC1(C)[C@H]2C[C@H](CCCCOCC(=O)O)[C@@H](NC(=O)c3csc4cc(F)c(O)cc34)[C@@H]1C2 [IIc-128]	5 nM			
CC1(C)[C@H]2C[C@H](CCCCOCC(=O)O)[C@@H](NC(=O)c3coc4ccc(NC(N)=O)cc34)[C@@H]1C2 [IIc-135]	3 nM			
CC1(C)[C@H]2C[C@H](CCCCSCC(=O)O)[C@@H](NC(=O)c3csc4cccc(O)c34)[C@@H]1C2 [IIe-24]	5.7 nM			
CC1(C)[C@H]2C[C@H](CCCCSCC(=O)O)[C@@H](NC(=O)c3cccc4ccsc34)[C@@H]1C2 [IIe-34]	19 nM			143 to 144 °C
CCOC(=O)Nc1ccc2scc(C(=O)N[C@@H]3[C@@H](CCCCC(=O)O)C[C@H]4C[C@@H]3C4(C)C)c2c1 [IIf-84]	20 nM			
O=C(O)/C=C/CCCC[C@H]1[C@@H]2CC[C@@H](C2)[C@@H]1NC(=O)c1csc2ccccc12 [Ia-17]	11 nM			155 to 157 °C
O=C(O)/C=C/CCCC[C@H]1[C@@H]2CC[C@@H](C2)[C@@H]1NC(=O)c1cc2sccc2[nH]1 [Ia-65]	18 nM			
O=C(O)COCCCC[C@H]1[C@@H]2CC[C@@H](C2)[C@@H]1NC(=O)c1csc2cc(O)ccc12 [Ic-22]	10 nM			76 to 79 °C
O=C(O)COCCCC[C@H]1[C@@H]2CC[C@@H](C2)[C@@H]1NC(=O)c1coc2ccc(O)cc12 [Ic-52]	10 nM		74 nM	
CC1(C)[C@H]2C[C@H](C/C=C\CCCC(=O)O)[C@@H](NC(=O)c3ccsc3)[C@@H]1C2 [Reference compound 1, reference compound]		8 min		
CC1(C)[C@H]2C[C@H](C/C=C\CCCC(=O)O)[C@@H](NC(=O)c3cccc4ccsc34)[C@@H]1C2 [Reference compound 2, reference compound]		17 min		
CC1(C)[C@H]2C[C@H](C/C=C\CCCC(=O)O)[C@@H](NC(=O)c3coc4ccc(O)cc34)[C@@H]1C2 [Reference compound 3]		8.7 min		

More lines, in order of falling IC50 (PGD2 receptor [1]), values ahead:

IC50 (PGD2 receptor [1])	half-life [2]	IC50 (PGD2 receptor [3])	melting point	Compound
19 nM	21.6 min			CC1(C)[C@H]2C[C@H](CCCC/C=C/C(=O)O)[C@@H](NC(=O)c3ccsc3)[C@@H]1C2 [IIa-4]
18 nM	44.3 min			CC1(C)[C@H]2C[C@H](CCCCOCC(=O)O)[C@@H](NC(=O)c3ccsc3)[C@@H]1C2 [IIc-4]
18 nM				COc1cc2c(C(=O)N[C@@H]3[C@@H](CCCCOCC(=O)O)C[C@H]4C[C@@H]3C4(C)C)csc2cc1F [IIc-129]
17 nM				CC1(C)[C@H]2C[C@H](CCCC/C=C/C(=O)O)[C@@H](NC(=O)c3cc4ccsc4[nH]3)[C@@H]1C2 [IIa-66]
17 nM			197 to 199 °C	CC1(C)[C@H]2C[C@H](CCCCSCC(=O)O)[C@@H](NC(=O)c3csc4ccc(F)cc34)[C@@H]1C2 [IIe-28]
17 nM			129 to 131 °C	Cc1ccc2scc(C(=O)N[C@H]3[C@H]4CC[C@H](C4)[C@@H]3CCCC/C=C/C(=O)O)c2c1 [Ia-20]
16 nM				CC1(C)[C@H]2C[C@H](CCCC/C=C/C(=O)O)[C@@H](NC(=O)c3csc4ccc(F)cc34)[C@@H]1C2 [IIa-28]
15 nM				CC1(C)[C@H]2C[C@H](CCCC/C=C/C(=O)O)[C@@H](NC(=O)c3csc4ccccc34)[C@@H]1C2 [IIa-17]
15 nM				CC1(C)[C@H]2C[C@H](CCCC/C=C/C(=O)O)[C@@H](NC(=O)c3coc4cc(F)ccc34)[C@@H]1C2 [IIa-54]
15 nM			87 to 90 °C	Cc1ccc2scc(C(=O)N[C@@H]3[C@@H](CCCCOCC(=O)O)C[C@H]4C[C@@H]3C4(C)C)c2c1 [IIc-20]
14 nM	34.6 min		141 to 142 °C	CC1(C)[C@H]2C[C@H](CCCC/C=C/C(=O)O)[C@@H](NC(=O)c3cccc4ccsc34)[C@@H]1C2 [IIa-34]
11 nM	66.7 min		95 to 96 °C	CC1(C)[C@H]2C[C@H](CCCCOCC(=O)O)[C@@H](NC(=O)c3cccc4ccsc34)[C@@H]1C2 [IIc-34]
11 nM				CC1(C)[C@H]2C[C@H](CCCCOCC(=O)O)[C@@H](NC(=O)c3csc4ccc(CNC(N)=O)cc34)[C@@H]1C2 [IIc-97]
10 nM			149 to 151 °C	O=C(O)COCCCC[C@H]1[C@@H]2CC[C@@H](C2)[C@@H]1NC(=O)c1csc2ccc(O)cc12 [Ic-23]
4.8 nM				CC1(C)[C@H]2C[C@H](CCCCSCC(=O)O)[C@@H](NC(=O)c3csc4cc(O)ccc34)[C@@H]1C2 [IIe-22]
4.6 nM				CC1(C)[C@H]2C[C@H](CCCCOCC(=O)O)[C@@H](NC(=O)c3csc4cc(O)ccc34)[C@@H]1C2 [IIc-22]
3.7 nM				CC1(C)[C@H]2C[C@H](CCCC/C=C/C(=O)O)[C@@H](NC(=O)c3csc4cc(O)ccc34)[C@@H]1C2 [IIa-22]
3.7 nM	16.7 min		159 to 160 °C	CC1(C)[C@H]2C[C@H](CCCC/C=C/C(=O)O)[C@@H](NC(=O)c3coc4ccc(O)cc34)[C@@H]1C2 [IIa-52]
